Reference: patent US7517885B2, “Substituted [4-(4-phenyl-piperazin-1-yl)-cyclohexyl]-urea compounds” (Janssen Pharmaceutica N.V., priority 2005, dated 2009)

Experiments:
[1] = target: T1, α1d-AR (Homo sapiens, UniProt P25100); experiment: α1-Adrenergic Receptor Binding Assay (125I-HEAT radio-ligand), α1d subtype; settings: membranes of COS-7 cells transfected with α1d subtype; 125I-HEAT 50 pM; rt 1 hr
T1 construct: expressed in transfected cells; host or cells: COS-7 cells (membranes)
T1 sequence (P25100 1-572): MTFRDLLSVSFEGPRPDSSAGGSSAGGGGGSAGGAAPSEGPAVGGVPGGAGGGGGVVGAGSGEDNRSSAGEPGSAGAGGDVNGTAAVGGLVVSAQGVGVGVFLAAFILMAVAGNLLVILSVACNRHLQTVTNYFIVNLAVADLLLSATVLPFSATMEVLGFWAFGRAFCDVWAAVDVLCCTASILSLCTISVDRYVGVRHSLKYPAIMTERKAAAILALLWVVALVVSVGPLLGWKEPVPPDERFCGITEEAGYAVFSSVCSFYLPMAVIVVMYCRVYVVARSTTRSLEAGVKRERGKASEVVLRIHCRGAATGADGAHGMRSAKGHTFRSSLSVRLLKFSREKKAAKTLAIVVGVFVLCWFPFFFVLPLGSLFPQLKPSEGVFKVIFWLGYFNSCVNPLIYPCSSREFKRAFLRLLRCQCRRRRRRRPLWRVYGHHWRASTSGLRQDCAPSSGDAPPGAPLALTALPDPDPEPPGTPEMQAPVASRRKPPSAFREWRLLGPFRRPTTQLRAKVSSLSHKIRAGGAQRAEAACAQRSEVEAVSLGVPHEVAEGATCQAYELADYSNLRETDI
Protocol: (§1) α1-Adrenergic Receptor Binding Assay
(§2) Preparation of COS Cell Membranes
(§3) Membranes were prepared from COS-7 cells (African Green monkey kidney SV40-transformed cells) that had been transfected with one of the three α1-AR subtypes (Genbank accession number for the α1a subtype: AF013261; Genbank accession number for the α1b subtype: NM000679; Genbank accession number for the α1d subtype: NM000678) using the following method: COS cells from ten 100 mm tissue culture plates were scraped into a 5 mL volume of TE (a mixture of 50 mM Tris-HCl, 5 mM EDTA, pH 7.4). […] The disrupted cells were centrifuged at 1000×g min at 4° C. Supernatants were centrifuged at 34,500×g for 20 min at 4° C. The membrane pellets were suspended in a 2 mL volume of TNE (a mixture of 50 mM Tris-HCl, 5 mM EDTA and 150 mM NaCl at pH 7.4). An aliquot of the membrane suspension was stored at −70° C. until use. The protein concentration was determined using the BioRad “DC” protein assay kit following membrane solubilization with Triton X-100.
(§4) Radio-Ligand Binding Assay
(§5) Triplicate determinations of radio-ligand binding in the presence of increasing concentrations of testing compound were made. The reagents were added to 96-well polypropylene plate wells. […] The plate was incubated at rt for 1 hr. The contents of the wells were filtered through a glass filter (type C) (GF/C) membrane Unifilter plate (Packard Instruments) using the Packard Filtermate cell harvester. The filter plates were dried in a vacuum oven for 30 min at 40° C. 25 μL Microscint 20 liquid scintillation fluid (Packard Instruments) was added to each well. The radioactive content was analyzed in the TopCount microplate scintillation counter (Packard Instruments).

[2] = target: T2, α1a-AR (Homo sapiens, UniProt P35348); experiment: α1-Adrenergic Receptor Binding Assay (125I-HEAT radio-ligand), α1a subtype; settings: membranes of COS-7 cells transfected with α1a subtype; 125I-HEAT 50 pM; rt 1 hr
T2 construct: expressed in transfected cells; host or cells: COS-7 cells (membranes)
T2 sequence (P35348 1-455 isoform P35348-4): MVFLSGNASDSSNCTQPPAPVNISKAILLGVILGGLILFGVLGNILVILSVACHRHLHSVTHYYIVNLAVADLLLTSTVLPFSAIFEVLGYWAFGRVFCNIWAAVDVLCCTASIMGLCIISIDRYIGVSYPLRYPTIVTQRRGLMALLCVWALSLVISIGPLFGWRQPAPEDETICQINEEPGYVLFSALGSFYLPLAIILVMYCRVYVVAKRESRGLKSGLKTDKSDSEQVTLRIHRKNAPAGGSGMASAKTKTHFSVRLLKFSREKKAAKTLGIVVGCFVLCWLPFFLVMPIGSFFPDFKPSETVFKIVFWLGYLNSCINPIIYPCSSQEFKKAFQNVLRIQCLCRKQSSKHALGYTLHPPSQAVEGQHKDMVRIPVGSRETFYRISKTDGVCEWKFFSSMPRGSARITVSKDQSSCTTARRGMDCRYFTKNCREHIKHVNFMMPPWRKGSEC
Protocol: as §1, §2, §3, §4, §5

[3] = target: T3, α1b-AR (Homo sapiens, UniProt P35368); experiment: α1-Adrenergic Receptor Binding Assay (125I-HEAT radio-ligand), α1b subtype; settings: membranes of COS-7 cells transfected with α1b subtype; 125I-HEAT 50 pM; rt 1 hr
T3 construct: expressed in transfected cells; host or cells: COS-7 cells (membranes)
T3 sequence (P35368 1-520): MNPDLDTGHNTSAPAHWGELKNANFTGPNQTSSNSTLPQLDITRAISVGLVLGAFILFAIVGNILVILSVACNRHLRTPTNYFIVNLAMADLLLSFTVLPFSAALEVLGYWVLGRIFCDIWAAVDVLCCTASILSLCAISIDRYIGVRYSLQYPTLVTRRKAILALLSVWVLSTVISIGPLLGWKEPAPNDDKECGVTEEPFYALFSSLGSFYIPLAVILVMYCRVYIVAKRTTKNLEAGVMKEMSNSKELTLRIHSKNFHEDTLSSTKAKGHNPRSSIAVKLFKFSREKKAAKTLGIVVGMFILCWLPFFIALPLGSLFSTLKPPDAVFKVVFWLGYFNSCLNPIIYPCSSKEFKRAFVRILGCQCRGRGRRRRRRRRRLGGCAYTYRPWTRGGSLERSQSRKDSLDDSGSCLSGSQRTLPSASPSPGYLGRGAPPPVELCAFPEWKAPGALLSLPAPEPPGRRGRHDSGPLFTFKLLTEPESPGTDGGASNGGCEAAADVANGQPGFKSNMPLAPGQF
Protocol: as §1, §2, §3, §4, §5

COc1ccc(Cl)cc1NC(=O)N[C@H]1CC[C@@H](N2CCN(c3ccccc3OC(C)C)CC2)CC1 [Cpd 18, 1-(5-chloro-2-methoxy-phenyl)-r-3-{c-4-[4-(2-isopropoxy-phenyl)-piperazin-1-yl]-cyclohexyl}-urea]
Ki [1]: 0.064 µM | Ki [2]: 0.101 µM

CC(C)Oc1ccccc1N1CCN([C@H]2CC[C@@H](NC(=O)Nc3c(F)cccc3F)CC2)CC1 [Cpd 26, 1-(2,6-difluoro-phenyl)-r-3-{c-4-[4-(2-isopropoxy-phenyl)-piperazin-1-yl]-cyclohexyl}-urea]
Ki [2]: 0.0516 µM | Ki [3]: 0.299 µM

COc1ccc(NC(=O)N[C@H]2CC[C@H](N3CCN(c4ccccc4OC(C)C)CC3)CC2)c(C)c1 [Cpd 21, r-1-{t-4-[4-(2-isopropoxy-phenyl)-piperazin-1-yl]-cyclohexyl}-3-(4-methoxy-2-methyl-phenyl)-urea]
Ki [1]: 0.0216 µM | Ki [2]: 0.0234 µM | Ki [3]: 0.153 µM

COc1ccc(NC(=O)N[C@H]2CC[C@@H](N3CCN(c4ccccc4OC(C)C)CC3)CC2)cc1Cl [Cpd 34, 1-(3-chloro-4-methoxy-phenyl)-r-3-{c-4-[4-(2-isopropoxy-phenyl)-piperazin-1-yl]-cyclohexyl}-urea]
Ki [1]: 0.028 µM | Ki [2]: 0.073 µM | Ki [3]: 0.493 µM

COc1ccc(NC(=O)N[C@H]2CC[C@H](N3CCN(c4ccccc4OC(C)C)CC3)CC2)c(OC)c1 [Cpd 4, 1-(2,4-dimethoxy-phenyl)-r-3-{t-4-[4-(2-isopropoxy-phenyl)-piperazin-1-yl]-cyclohexyl}-urea]
Ki [1]: 0.02 µM | Ki [2]: 0.074 µM

CC(C)Oc1ccccc1N1CCN([C@H]2CC[C@H](NC(=O)Nc3cc(F)ccc3F)CC2)CC1 [Cpd 25, 1-(2,5-difluoro-phenyl)-r-3-{t-4-[4-(2-isopropoxy-phenyl)-piperazin-1-yl]-cyclohexyl}-urea]
Ki [1]: 0.0012 µM | Ki [2]: 0.0017 µM | Ki [3]: 0.0364 µM

CC(C)Oc1ccccc1N1CCN([C@H]2CC[C@@H](NC(=O)Nc3ccc(OC(F)(F)F)cc3)CC2)CC1 [Cpd 31, r-1-{c-4-[4-(2-isopropoxy-phenyl)-piperazin-1-yl]-cyclohexyl}-3-(4-trifluoromethoxy-phenyl)-urea]
Ki [1]: 0.0045 µM | Ki [2]: 0.048 µM | Ki [3]: 0.277 µM

COc1ccc(C)cc1NC(=O)N[C@H]1CC[C@@H](N2CCN(c3ccccc3OC(C)C)CC2)CC1 [Cpd 33, r-1-{c-4-[4-(2-isopropoxy-phenyl)-piperazin-1-yl]-cyclohexyl}-3-(2-methoxy-5-methyl-phenyl)-urea]
Ki [1]: 0.0065 µM | Ki [2]: 0.037 µM | Ki [3]: 0.168 µM

CC(C)Oc1ccccc1N1CCN([C@H]2CC[C@@H](NC(=O)Nc3ccc(F)c(F)c3)CC2)CC1 [Cpd 7, 1-(3,4-difluoro-phenyl)-r-3-{c-4-[4-(2-isopropoxy-phenyl)-piperazin-1-yl]-cyclohexyl}-urea]
Ki [2]: 0.0506 µM | Ki [3]: 0.963 µM

COc1ccccc1NC(=O)N[C@H]1CC[C@@H](N2CCN(c3ccccc3OC(C)C)CC2)CC1 [Cpd 1, 1-{c-4-[4-(2-isopropoxy-phenyl)-piperazin-1-yl]-cyclohexyl}-r-3-(2-methoxy-phenyl)-urea]
Ki [2]: 0.155 µM | Ki [3]: 0.223 µM

CC(C)Oc1ccccc1N1CCN([C@H]2CC[C@H](NC(=O)Nc3ccc(F)c(F)c3)CC2)CC1 [Cpd 8, 1-(3,4-difluoro-phenyl)-r-3-{t-4-[4-(2-isopropoxy-phenyl)-piperazin-1-yl]-cyclohexyl}-urea]
Ki [2]: 0.003 µM | Ki [3]: 0.074 µM

CC(C)Oc1ccccc1N1CCN([C@H]2CC[C@@H](NC(=O)Nc3ccc(F)cc3F)CC2)CC1 [Cpd 22, 1-(2,4-difluoro-phenyl)-r-3-{c-4-[4-(2-isopropoxy-phenyl)-piperazin-1-yl]-cyclohexyl}-urea]
Ki [2]: 0.014 µM | Ki [3]: 0.475 µM

CC(C)Oc1ccccc1N1CCN([C@H]2CC[C@@H](NC(=O)Nc3cccc(Cl)c3)CC2)CC1 [Cpd 11, 1-(3-chloro-phenyl)-r-3-{c-4-[4-(2-isopropoxy-phenyl)-piperazin-1-yl]-cyclohexyl}-urea]
Ki [2]: 0.0222 µM

COc1ccc(Cl)cc1NC(=O)N[C@H]1CC[C@H](N2CCN(c3ccccc3OC(C)C)CC2)CC1 [Cpd 19, 1-(5-chloro-2-methoxy-phenyl)-r-3-{t-4-[4-(2-isopropoxy-phenyl)-piperazin-1-yl]-cyclohexyl}-urea]
Ki [1]: 0.0027 µM | Ki [2]: 0.034 µM

CC(C)Oc1ccccc1N1CCN([C@H]2CC[C@H](NC(=O)Nc3c(Cl)cccc3Cl)CC2)CC1 [Cpd 14, 1-(2,6-dichloro-phenyl)-r-3-{t-4-[4-(2-isopropoxy-phenyl)-piperazin-1-yl]-cyclohexyl}-urea]
Ki [2]: 0.0062 µM

CC(C)Oc1ccccc1N1CCN([C@H]2CC[C@H](NC(=O)Nc3c(F)cccc3F)CC2)CC1 [Cpd 27, 1-(2,6-difluoro-phenyl)-r-3-{t-4-[4-(2-isopropoxy-phenyl)-piperazin-1-yl]-cyclohexyl}-urea]
Ki [2]: 0.0053 µM | Ki [3]: 0.0356 µM

COc1ccccc1NC(=O)N[C@H]1CC[C@H](N2CCN(c3ccccc3OC(C)C)CC2)CC1 [Cpd 2, 1-{t-4-[4-(2-isopropoxy-phenyl)-piperazin-1-yl]-cyclohexyl}-r-3-(2-methoxy-phenyl)-urea]
Ki [2]: 0.038 µM | Ki [3]: 0.107 µM

CC(C)Oc1ccccc1N1CCN([C@H]2CC[C@H](NC(=O)Nc3cccc(Cl)c3)CC2)CC1 [Cpd 12, 1-(3-chloro-phenyl)-r-3-{t-4-[4-(2-isopropoxy-phenyl)-piperazin-1-yl]-cyclohexyl}-urea]
Ki [2]: 0.0051 µM

COc1ccc(NC(=O)N[C@H]2CC[C@@H](N3CCN(c4ccccc4OC(C)C)CC3)CC2)c(OC)c1 [Cpd 3, 1-(2,4-dimethoxy-phenyl)-r-3-{c-4-[4-(2-isopropoxy-phenyl)-piperazin-1-yl]-cyclohexyl}-urea]
Ki [1]: 0.092 µM | Ki [2]: 0.11 µM

CC(C)Oc1ccccc1N1CCN([C@H]2CC[C@@H](NC(=O)Nc3c(Cl)cccc3Cl)CC2)CC1 [Cpd 13, 1-(2,6-dichloro-phenyl)-r-3-{c-4-[4-(2-isopropoxy-phenyl)-piperazin-1-yl]-cyclohexyl}-urea]
Ki [2]: 0.0334 µM

CC(C)Oc1ccccc1N1CCN([C@H]2CC[C@H](NC(=O)Nc3ccc(F)cc3F)CC2)CC1 [Cpd 23, 1-(2,4-difluoro-phenyl)-r-3-{t-4-[4-(2-isopropoxy-phenyl)-piperazin-1-yl]-cyclohexyl}-urea]
Ki [2]: 0.0031 µM | Ki [3]: 0.076 µM
